Legend:
[1] = tested on: AMBEL (Ambrosia artemisifolia); test: Postemergence herbicidal evaluation; assay type: in vivo, L.
Summary of the method: (§1)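 Seedlings grown about two weeks in flats, sprayed, then kept under standard greenhouse care. Rated visually 4–5 weeks after treatment on a 0–9 scale (stand, vigour, malformation, size, chlorosis, overall appearance) relative to untreated control; repeat tests averaged.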

[2] = tested on: CASOB (Cassia obtusifolia); test: Postemergence herbicidal evaluation; assay type: in vivo, L.
Summary of the method: as §1

[3] = tested on: CHEAL (Chenopodium album); test: Postemergence herbicidal evaluation; assay type: in vivo, L.
Summary of the method: as §1

[4] = tested on: ECHCG (Echinochloa crus-galli); test: Postemergence herbicidal evaluation; assay type: in vivo, (L.) Beau
Summary of the method: as §1

[5] = tested on: ORYSAT (Rice, Tebonnet); test: Postemergence herbicidal evaluation; assay type: in vivo, Oryza sativa, (L.) Tebonnet
Summary of the method: as §1

[6] = tested on: ZEAMX (Corn, Field); test: Postemergence herbicidal evaluation; assay type: in vivo, Zea mays, L.
Summary of the method: as §1

[7] = tested on: IPOHE (Ipomoea hederacea); test: Preemergence herbicidal evaluation; assay type: in vivo, (L.) Jacq.; conditions: preemergence, rated 4-5 weeks after treatment
[8] = tested on: GLXMAW (Soybean, Williams); test: Preemergence herbicidal evaluation; assay type: in vivo, Glycine max, (L.) Merr. cv Williams; conditions: preemergence, rated 4-5 weeks after treatment
[9] = tested on: ORYSAT (Rice, Tebonnet); test: Preemergence herbicidal evaluation; assay type: in vivo, Oryza sativa, (L.) Tebonnet; conditions: preemergence, rated 4-5 weeks after treatment
[10] = tested on: TRZAWR (Wheat, Winter, cv Riband); test: Preemergence herbicidal evaluation; assay type: in vivo, Triticum aestivum; conditions: preemergence, rated 4-5 weeks after treatment
Summary of the method: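 Applied before emergence as an aqueous acetone spray over seeded soil. Read-out: 0–9 visual rating covering plant stand, vigor, size, chlorosis, malformation and overall appearance compared with control, taken 4–5 weeks after spraying.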

[11] = tested on: ECHORC (Echinochloa oryzoides); test: Flooded paddy, preemergence weed control; assay type: in vivo, Echinochloa oryzoides (Ard.) Fritsch.; conditions: rated 3-4 weeks after treatment, 0-9 rating scale
Summary of the method: (§2)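 In this preemergence paddy assay, weed seeds or organs are sown at up to 0.5 cm in silt loam and covered by 1.5–3 cm of water for the full test period. After treatment the pots are kept in a greenhouse, and herbicidal effect is rated 0-9 visually against a control.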

[12] = tested on: CYPIR (Cyperus iria); test: Flooded paddy, preemergence weed control; assay type: in vivo; conditions: rated 3-4 weeks after treatment, 0-9 rating scale
Summary of the method: as §2

| Compound | Postemergence herbicidal rating, AMBEL ([1]; rate 0.0320 kg/ha) | Postemergence herbicidal rating, AMBEL ([1]; rate 0.0620 kg/ha) | Postemergence herbicidal rating, CASOB ([2]; rate 0.0320 kg/ha) | Postemergence herbicidal rating, CASOB ([2]; rate 0.0620 kg/ha) | Postemergence herbicidal rating, CHEAL ([3]; rate 0.0320 kg/ha) | Postemergence herbicidal rating, CHEAL ([3]; rate 0.0620 kg/ha) | Postemergence herbicidal rating, ECHCG ([4]; rate 0.0320 kg/ha) | Postemergence herbicidal rating, ECHCG ([4]; rate 0.0620 kg/ha) | Postemergence herbicidal rating, ORYSAT ([5]; rate 0.0320 kg/ha) | Postemergence herbicidal rating, ORYSAT ([5]; rate 0.0620 kg/ha) | Postemergence herbicidal rating, ZEAMX ([6]; rate 0.0320 kg/ha) | Postemergence herbicidal rating, ZEAMX ([6]; rate 0.0620 kg/ha) | IPOHE preemergence herbicidal rating ([7]; Rate 0.0620 kg/ha) | IPOHE preemergence herbicidal rating ([7]; Rate 0.1250 kg/ha) | IPOHE preemergence herbicidal rating ([7]; Rate 0.2500 kg/ha) | GLXMAW preemergence herbicidal rating ([8]; Rate 0.0620 kg/ha) | GLXMAW preemergence herbicidal rating ([8]; Rate 0.1250 kg/ha) | GLXMAW preemergence herbicidal rating ([8]; Rate 0.2500 kg/ha) | ORYSAT preemergence herbicidal rating ([9]; Rate 0.0620 kg/ha) | ORYSAT preemergence herbicidal rating ([9]; Rate 0.1250 kg/ha) | also measured |
| --- | --- | --- | --- | --- | --- | --- | --- | --- | --- | --- | --- | --- | --- | --- | --- | --- | --- | --- | --- | --- | --- |
| COC(=O)C(C)Oc1ccsc1-c1nsc2ccc(-n3c(=O)cc(C(F)(F)F)n(C)c3=O)cc12 (centres unmarked) [Compound 23, methyl 2-[(2-[5-[3,6-dihydro-3-methyl-2,6-dioxo-4-(trifluoromethyl)-1(2H)-pyrimidinyl]-1,2-benzisothiazol-3-yl]-3-thienyl]oxy]propionate] | 2.0 | 6.0 | 0.0 | 0.0 | 2.0 | 4.0 | 0.0 | 1.0 | 2.5 | 3.5 | 5.0 | 6.5 | 0.0 | 0.0 | 0.0 | 0.0 | 0.0 | 0.0 | 0.0 | 0.0 | Postemergence herbicidal rating, AMBEL ([1]; rate 0.1250 kg/ha): 9.0; Postemergence herbicidal rating, CASOB ([2]; rate 0.1250 kg/ha): 2.0; Postemergence herbicidal rating, CHEAL ([3]; rate 0.1250 kg/ha): 6.0; Postemergence herbicidal rating, ECHCG ([4]; rate 0.1250 kg/ha): 5.0; Postemergence herbicidal rating, ORYSAT ([5]; rate 0.1250 kg/ha): 5.0; Postemergence herbicidal rating, ZEAMX ([6]; rate 0.1250 kg/ha): 7.0; ORYSAT preemergence herbicidal rating ([9]; Rate 0.2500 kg/ha): 0.0; TRZAWR preemergence herbicidal rating ([10]; Rate 0.0620 kg/ha): 0.0; TRZAWR preemergence herbicidal rating ([10]; Rate 0.1250 kg/ha): 0.0; TRZAWR preemergence herbicidal rating ([10]; Rate 0.2500 kg/ha): 0.0; herbicidal rating, ECHORC ([11]; rate 0.0320 kg/ha): 0.0; herbicidal rating, ECHORC ([11]; rate 0.1250 kg/ha): 3.0; herbicidal rating, CYPIR ([12]; rate 0.0320 kg/ha): 9.0; herbicidal rating, CYPIR ([12]; rate 0.1250 kg/ha): 9.0 |
| Cn1c(C(F)(F)F)cc(=O)n(-c2ccc3snc(C(SCCO)SCCO)c3c2)c1=O [Compound 33, 1,2-benzisothiazole-3-carboxaldehyde, 5-[3,6-dihydro-3-methyl-2,6-dioxo-4-(trifluoromethyl)-1(2H)-pyrimidinyl]-, 3-[bis(2-hydroxyethyl)dithioacetal]] | 4.0 | 9.0 | 0.0 | 1.0 | 3.0 | 7.0 | 1.0 | 3.0 | 4.0 | 5.0 | 5.0 | 5.5 | 0.0 | 5.0 | 5.0 | 0.0 | 1.0 | 3.0 | 0.0 | 3.0 | ORYSAT preemergence herbicidal rating ([9]; Rate 0.2500 kg/ha): 6.0; TRZAWR preemergence herbicidal rating ([10]; Rate 0.0620 kg/ha): 0.0; TRZAWR preemergence herbicidal rating ([10]; Rate 0.1250 kg/ha): 1.0; TRZAWR preemergence herbicidal rating ([10]; Rate 0.2500 kg/ha): 4.0; herbicidal rating, ECHORC ([11]; rate 0.0320 kg/ha): 0.0; herbicidal rating, ECHORC ([11]; rate 0.1250 kg/ha): 2.0; herbicidal rating, CYPIR ([12]; rate 0.0320 kg/ha): 0.0; herbicidal rating, CYPIR ([12]; rate 0.1250 kg/ha): 3.0 |

From US6706663B2, “Herbicidal 3-heterocyclic substituted benzisothiazole and benzisoxazole compounds” (Wyeth, priority 2000, dated 2004)
